Source: patent publication US8318764B2, “Macrocyclic inhibitors of JAK” (Roche Palo Alto LLC, priority 2009, dated 2012)

molecular target: T1, JAK3: Recombinant human kinase domain (810-1124) (Homo sapiens, UniProt P52333); assay: Determination of IC50 of Janus Kinase (JAK) inhibition, radioactive 33P-ATP end-point assay, JAK3; assay type: biochemical; conditions: 0.1 nM JAK3, ATP 1.5 uM, peptide 50 uM, 20 minutes, room temperature; read-out: JAK3 Enzyme IC50
T1 construct: Recombinant human kinase domain (810-1124); made in house
Experimental: Determination of IC50 of Janus Kinase (JAK) inhibition:
Enzymes and peptide substrate used are described below:
JAK3: Recombinant human kinase domain (810-1124) made in house by Roche Palo Alto
Substrate: N-terminally biotinylated 14-mer peptide derived from activation loop of JAK1 with sequence of the peptide substrate: Biotin-KAIETDKEYYTVKD
Assay conditions used are described below:
Assay Buffer: JAK Kinase Buffer: 50 mM Hepes [pH 7.2], 10 mM MgCl2, 1 mM DTT, 1 mg/ml BSA. The assay is carried out in this buffer.
Assay Format: The kinase activity of all three JAK kinases is measured using a radioactive, end-point assay and with trace amounts of ^33P-ATP. The assays are carried out in 96-well polypropylene plates.
All concentrations are final in the reaction mixture and all incubations are carried at room temperature. Assay steps are described below:
1) Compounds are serially diluted in 100% DMSO typically at a 10× starting concentration of 1 mM. Final concentration of DMSO in the reaction is 10%.
2) Compounds are preincubated with enzyme (0.1 nM JAK3, 1 nM JAK2, 5 nM JAK1) for 10 minutes.
3) Reactions are initiated by the addition of a cocktail of the two substrates (ATP and peptide premixed in the JAK Kinase Buffer). In the JAK1/JAK2/JAK3 assays, ATP and the peptide are used at concentrations of 1.5 uM and 50 uM, respectively. The duration of the assay for JAK2 and JAK3 is 20 minutes. JAK1 assay is carried out for 45 minutes. With all three enzymes, reactions are terminated by the addition of 0.5M EDTA to a final concentration of 100 mM. 4) 25 ul of terminated reactions are transferred to 150 ul of a 7.5% (v/v) slurry of streptavidin-coated sepharose beads in MgCl2- and CaCl2-free 1× Phosphate Buffered Saline containing 50 mM of EDTA in 96-well, 1.2 um MultiScreen-BV filter plates. 5) After a 30-minute incubation, the beads are washed under vacuum with the following buffers:
a. 3 to 4 washes with 200 ul of 2M NaCl.
b. 3 to 4 washes with 200 ul of 2M NaCl plus 1% (v/v) phosphoric acid.
6) Washed plates are dried in a 60° C. oven for between 1 to 2 hours.
7) 70 ul of Microscint 20 scintillation fluid is added to each well of filter plates and after at least 30 minutes of incubation, radioactive counts are measured in a Perkin Elmer microplate scintillation counter.

T1 sequence (P52333 810-1124): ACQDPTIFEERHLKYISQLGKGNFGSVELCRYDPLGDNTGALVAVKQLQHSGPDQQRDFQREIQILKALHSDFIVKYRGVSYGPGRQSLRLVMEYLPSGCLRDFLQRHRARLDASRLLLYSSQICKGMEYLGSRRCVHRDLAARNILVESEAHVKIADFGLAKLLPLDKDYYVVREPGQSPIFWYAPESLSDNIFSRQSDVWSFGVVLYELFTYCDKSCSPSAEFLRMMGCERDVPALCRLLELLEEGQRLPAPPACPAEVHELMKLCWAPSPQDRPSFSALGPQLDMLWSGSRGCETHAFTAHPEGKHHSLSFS

How did the IC50 turn out when `CC1(C)CCCCCc2cccc(n2)Nc2n[nH]c3c2CN(C3)C1=O` [Compound I-6] was run?
The IC50 was 502 nM.

Which IC50 does the source give for `CC1(C)CCCCc2cccc(n2)Nc2n[nH]c3c2CN(C3)C1=O` [Compound I-7] here?
The IC50 was 811 nM.

Which IC50 does the source give for `CC12CCN(CCCCc3cccc(n3)Nc3n[nH]c4c3CN(C4)C1=O)C2` (centres unmarked) [Compound I-12] here?
Its IC50 is 42.6 nM.

How did the IC50 turn out when `CCC1(C)CCCCOc2cccc(n2)Nc2n[nH]c3c2CN(C3)C1=O` (centres unmarked) [Compound I-5] was run?
The IC50 was 530 nM.

`CC1(c2ccccc2)CCCCCc2cccc(n2)Nc2n[nH]c3c2CN(C3)C1=O` (centres unmarked) [Compound I-16] was tested. Which IC50 did it give?
The IC50 was > 1000 nM.

Which IC50 does the source give for `O=C1N2Cc3[nH]nc(c3C2)Nc2cccc(n2)CCCCCC12CCCC2` [Compound I-15] here?
Its IC50 is 444 nM.

Which IC50 does the source give for `CC1CCCCC(C)(C)C(=O)N2Cc3[nH]nc(c3C2)Nc2cccc1n2` (centres unmarked) [Compound I-2] here?
Its IC50 is 795 nM.

For `CC1(C)CCCCOc2cccc(n2)Nc2n[nH]c3c2CN(C3)C1=O` [Compound I-8], which IC50 is on record?
The IC50 was 1040 nM.

Which IC50 does the source give for `CC1CCc2cccc(n2)Nc2n[nH]c3c2CN(C3)C(=O)C(C)(C)CC1` (centres unmarked) [Compound I-11] here?
The IC50 was 487 nM.

Which IC50 does the source give for `CC1(C)CCCCCOc2cccc(n2)Nc2n[nH]c3c2CN(C3)C1=O` [Compound I-10] here?
The IC50 was 343 nM.

`CCC1(C)CCCCCc2cccc(n2)Nc2n[nH]c3c2CN(C3)C1=O` (centres unmarked) [Compound I-4] was tested. Which IC50 did it give?
The IC50 was 280 nM.

Which IC50 does the source give for `CC1(C)CCCCCc2cc(ccn2)Nc2n[nH]c3c2CN(C3)C1=O` [Compound I-3] here?
Its IC50 is > 10000 nM.

With `CC1(C)CCCOc2cccc(n2)Nc2n[nH]c3c2CN(C3)C1=O` [Compound I-9] as the compound, how does the IC50 read?
Its IC50 is > 3000 nM.

With `CC12CCN(CCCc3cccc(n3)Nc3n[nH]c4c3CN(C4)C1=O)C2` (centres unmarked) [Compound I-13] as the compound, how does the IC50 read?
Its IC50 is 92.8 nM.

With `CCC1(C)CCCCCCc2cccc(n2)Nc2n[nH]c3c2CN(C3)C1=O` (centres unmarked) [Compound I-1] as the compound, how does the IC50 read?
The IC50 was 915 nM.

How did the IC50 turn out when `O=C1N2Cc3[nH]nc(c3C2)Nc2cccc(n2)CCCCCC12CCOCC2` [Compound I-17] was run?
The IC50 was > 1000 nM.

For `O=C1N2Cc3[nH]nc(c3C2)Nc2cccc(n2)CCCCCC12CCCCC2` [Compound I-14], which IC50 is on record?
The IC50 was 4210 nM.
